Measured values from ChEMBL document CHEMBL1126189, “Synthesis and X-ray crystallographic analysis of quinazolinone cholecystokinin/gastrin receptor ligands” (J Med Chem, 1992).

Experiments:
[1] = target: T1, Gastrin/cholecystokinin type B receptor (Mus musculus, UniProt P56481); experiment: Evaluated for inhibition of [125I]CCK-8S binding to cholecystokinin CCK-B receptor from mouse brain membranes […] (in vitro)
T1 sequence (P56481 whole entry): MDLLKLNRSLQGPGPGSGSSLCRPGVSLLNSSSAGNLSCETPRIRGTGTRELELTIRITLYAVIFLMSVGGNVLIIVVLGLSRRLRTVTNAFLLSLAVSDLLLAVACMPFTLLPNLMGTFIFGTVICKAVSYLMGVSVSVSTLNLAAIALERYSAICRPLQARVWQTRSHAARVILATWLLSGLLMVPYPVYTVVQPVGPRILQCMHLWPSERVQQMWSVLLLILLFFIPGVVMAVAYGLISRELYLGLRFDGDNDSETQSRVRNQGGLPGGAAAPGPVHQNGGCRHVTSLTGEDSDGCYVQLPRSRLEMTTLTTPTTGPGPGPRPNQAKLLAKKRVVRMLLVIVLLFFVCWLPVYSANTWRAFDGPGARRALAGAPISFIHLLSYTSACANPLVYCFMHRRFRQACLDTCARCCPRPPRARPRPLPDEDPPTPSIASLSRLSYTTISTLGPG

[2] = target: T2, Gastrin/cholecystokinin type B receptor (Mus musculus) (UniProt P56481); experiment: Evaluated for inhibition of [125I]-CCK-8S binding to cholecystokinin CCK-B receptor from mouse brain membranes […] (in vitro); settings: 10 uM
T2 sequence (whole entry): T1 sequence (P56481 whole entry)

| Structure (SMILES) | IC50 [1] [nM] | inhibition [2] [%] |
| --- | --- | --- |
| CC(C)Oc1cccc(-n2c(CC(C)c3c[nH]c4ccccc34)nc3ccccc3c2=O)c1 (centres undefined) | 70 | – |
| O=c1c2ccccc2nc(CCCc2ccccc2)n1-c1ccccc1 | – | 21 |
| O=c1c2ccccc2nc(CCCc2c[nH]c3ccccc23)n1-c1ccccc1 | – | 20 |
| O=c1c2ccccc2nc(CCc2ccccc2)n1-c1ccccc1 | – | 27 |
| O=c1c2ccccc2nc(Cc2c[nH]c3ccccc23)n1-c1ccccc1 | – | 36 |
| O=c1c2ccccc2nc(Cc2ccccc2)n1-c1ccccc1 | – | 6 |
| CC(C)Oc1cccc(-n2c(C(C)Cc3c[nH]c4ccccc34)nc3ccccc3c2=O)c1 (centres undefined) | 9100 | – |
| CC(C)Oc1cccc(-n2c(/C=C/c3c[nH]c4ccccc34)nc3ccccc3c2=O)c1 | 430 | – |
| CC(C)Oc1cccc(-n2c(/C=C/c3c[nH]c4ccc(Br)cc34)nc3ccccc3c2=O)c1 | 1400 | – |
